Laboratory results: patent US20070167488A1, “Novel therapeutic use” (Leo Pharma A/S, priority 2003, published 2007)
Marks after values point to notes of the source that are not given here.

How the values were obtained:
[1] = tested on: EAE induced in SJL/J mice with a peptide from myelin proteolipid protein (PLP139-153); test: EAE model in SJL/J mice immunized with PLP139-153 peptide; type: in vivo, mouse; conditions: for Inhibition of EAE compared with the suspension vehicle group (in words): SJL/J mice, PLP139-153, doses as in tables 1 and 3; for inhibition of EAE: another experiment (data not shown)
IL-2 = test: Inhibition of IL-2 production in phytohemagglutinin-activated human PBMCs (sandwich ELISA); type: cell-based; conditions: approximately 46 hours; for IC50: Homo sapiens, PBMC, 46 h, read-out: IL-2 pIC50 (converted)
Experimental: Peripheral blood mononuclear cells (PBMCs) were isolated from human blood. The lymphocytes, a fraction of the PBMCs, were activated to secrete IL-2 using the polyclonal mitogen phytohemagglutinin. The test compounds were added in concentrations from 10^−5 to 10^−10, and the cells (10^6/ml) were incubated in microtiter wells at 37° C. for approximately 46 hours.
After 46 hours the cells were centrifuged down for 25 minutes at 1000×g and the supernatants were transferred to transferred to microtiter wells precoated with a monoclonal antibody against human IL-2. The IL-2 concentration in the supernatants was determined by a sandwich ELISA. Microtiter plates were coated (1 μg/ml) with a monoclonal antibody (R&D, UK) against human IL-2, washed 4 times, blocked with 1% casein buffer for 2 hours and washed 2 times. 100 μl sample was added to each well and incubated overnight. All samples were tested in triplicate. 100 μl IL-2 standards (R&D, UK) at a concentration range of 10000-0 pg/ml were tested in triplicate. After incubation the plates were washed and incubated with biotinylated polyclonal secondary antibody against human IL-2 (R&D, UK) for 45 minutes and thereafter washed 4 times. 100 μl enzyme conjugate, horseradish peroxidase conjugated streptavidin diluted 1:4000 (Zymed, USA), was added to all wells and incubated for 30 minutes. 100 μl OPD substrate (KEM EN TEC-DK) was added and the enzyme/substrate reaction stopped after 10 minutes at room temperature with 50 μl 1 M H2SO4. The colour development (optical density—OD) was determined at 492 nm on an ELISA reader and the background OD at 620 nm subtracted).

[2] = Table 4, 50 mg/kg daily, treatment as in example 4
[3] = Table 3, experiment with vehicle AUC 42.75, day 0-21, 50 mg/kg i.p. daily
[4] = Exp. 1, terminated day 21, 50 mg/kg i.p. daily
[5] = Exp. 4, terminated day 35, 200 mg/kg p.o. daily

| SMILES | IC50 (IL-2) [µM] | further results |
| --- | --- | --- |
| O=C(O)Cn1cc(/C=C2\C(=O)Nc3ccccc32)c2ccccc21 [Compound 26, [3-(2-oxo-1,2-dihydro-indol-3-ylidenemethyl)-indol-1-yl]-acetic acid] | – | Inhibition (%) of EAE (area-under-curve of the disease score) [1, 2]: 34% |
| COc1ccc(OC)c(/C=C2/C(=O)Nc3cc(Br)ccc32)c1 [Compound 171, 6-bromo-3-(2,5-dimethoxy-benzylidene)-1,3-dihydro-indol-2-one] | – | Inhibition (%) of EAE (area-under-curve of the disease score) [1, 2]: 40% |
| CCOC(=O)c1cc(C)c(/C=C2\C(=O)Nc3ccccc32)[nH]1 [Compound 01, 4-methyl-5-(2-oxo-1,2-dihydro-indol-3-ylidenemethyl)-1H-pyrrole-2-carboxylic acid ethyl ester] | – | Inhibition (%) of EAE (area-under-curve of the disease score) [1, 2]: 44% |
| COc1ccc(OC)c(/C=C2/C(=O)Nc3ccccc32)c1 [Compound 110, 3-(2,5-dimethoxy-benzylidene)-1,3-dihydro-indol-2-one] | – | Inhibition of EAE compared with the suspension vehicle group (in words) [1]: clear and significant inhibition; AUC (mean) of the disease score [1, 3]: 12.15; inhibition (%) [1, 3]: 72%; Inhibition (%) of EAE (area-under-curve of the disease score) ([1]; Table 7, 50 mg/kg p.o., suspension vehicle): 47%; Inhibition (%) of EAE (area-under-curve of the disease score) ([1]; Table 7, 50 mg/kg p.o., suspension vehicle adjusted to pH 4 by addition of aqueous HCl): 67** %; inhibition of EAE ([1]; 50 mg/kg, highest dose): 90%; inhibition of EAE ([1]; lowest dose (significant at 50, 25 and 10 mg/kg; 4 mg/kg also given)): 42% |
| Cc1[nH]c2ccccc2c1/C=C1/C(=O)Nc2ccccc21 [Compound 75, 3-(2-methyl-1H-indol-3-ylmethylene)-1,3-dihydro-indol-2-one] | – | Inhibition (%) of EAE (area-under-curve of the disease score) [1, 2]: 63% |
| Cc1cc(CO)[nH]c1/C=C1\C(=O)Nc2ccccc21 [Compound 03, 3-(5-hydroxymethyl-3-methyl-1H-pyrrol-2-ylmethylene)-1,3-dihydro-indol-2-one] | – | Inhibition (%) of EAE (area-under-curve of the disease score) [1, 2]: 57% |
| Cc1cc(C)c(/C(C(=O)O)=C2\C(=O)Nc3ccccc32)[nH]1 [Compound 229, (3,5-dimethyl-1H-pyrrol-2-yl)-(2-oxo-1,2-dihydro-indol-3-ylidene)-acetic acid] | – | Inhibition (%) of EAE (area-under-curve of the disease score) [1, 2]: 59% |
| Cc1cc(C)c(/C=C2\C(=O)N(O)c3ccccc32)[nH]1 [Compound 45, 3-(3,5-dimethyl-1H-pyrrol-2-ylmethylene)-1-hydroxy-1,3-dihydro-indol-2-one] | – | Inhibition (%) of EAE (area-under-curve of the disease score) [1, 2]: 67% |
| CC(=O)ON1C(=O)/C(=C\c2[nH]c(C)cc2C)c2ccccc21 [Compound 51, acetic acid 3-(3,5-dimethyl-1H-pyrrol-2-ylmethylene)-2-oxo-2,3-dihydro-indol-1-yl ester] | – | Inhibition (%) of EAE (area-under-curve of the disease score) [1, 2]: 48% |
| Cc1[nH]c(C=C2C(=O)Nc3ccccc32)c(C)c1CCC(=O)O [Compound A, 3-[2,4-dimethyl-5-(oxo-1,2-dihydroindol-3-ylidenemethyl)-1H-pyrrol-3-yl]-propionic acid, reference compound] | – | AUC (mean) of the disease score [1, 4]: 23.4; inhibition (%) [1, 4]: −36%; AUC (mean) of the disease score [1, 5]: 55.5; inhibition (%) [1, 5]: 11%; Inhibition of EAE compared with the suspension vehicle group (in words) [1]: no significant inhibition |
| CCN(CC)CCNC(=O)c1cc(C)c(/C=C2\C(=O)Nc3ccccc32)[nH]1 | 0.0398 | – |
| Cc1cc(C(=O)NCC2CCCCC2)[nH]c1/C=C1\C(=O)Nc2ccccc21 | 0.0316 | – |
| COc1cc(/C=C2/C(=O)Nc3ccccc32)c(OCc2ccccc2)cc1OC | 0.794 | – |
| O=C1Nc2ccc(Br)cc2/C1=C/c1c[nH]c2ccccc12 | 0.002 | – |
| Cc1cc(C)c(/C=C2\C(=O)N(O)c3ccccc32)[nH]1 [drawing 224] | 0.01 | – |
| O=C1Nc2ccccc2/C1=C\c1ccc(O)cc1O | 0.316 | – |
| O=C1Nc2ccccc2/C1=C\c1ccc(Cl)c(Cl)c1 | 0.001 | – |
| COc1cc[nH]c1/C=C1\C(=O)Nc2ccccc21 | 0.02 | – |
| O=C1Nc2ccccc2/C1=C\c1ccc(Cl)cc1Cl | 0.001 | – |
| CCOC(=O)c1cc(C)c(/C=C2\C(=O)Nc3ccccc32)[nH]1 [drawing 139] | 0.01 | – |
| Cc1cc(C(=O)NCC2(c3ccc(Cl)cc3)CC2)[nH]c1/C=C1\C(=O)Nc2ccccc21 | 0.0631 | – |
| Cc1cc(C(=O)OCc2ccccc2)[nH]c1/C=C1\C(=O)Nc2ccccc21 | 0.02 | – |
| O=C1Nc2ccccc2/C1=C/c1c[nH]c2ccc(F)cc12 | 0.1 | – |
| COc1ccc(OC)c(/C=C2/C(=O)Nc3c(F)cc(F)cc32)c1 | 0.01 | – |

| SMILES | IC50 (IL-2) [µM] | further results |
| --- | --- | --- |
| O=C1Nc2ccc(F)c(F)c2/C1=C/c1c[nH]c2ccccc12 | 0.00398 | – |
| Cc1cc(C(=O)NCCCc2ccccc2)[nH]c1/C=C1\C(=O)Nc2ccccc21 | 0.0501 | – |
| O=C1Nc2ccccc2/C1=C\c1ccoc1 | 0.631 | – |
| O=C1Nc2ccccc2/C1=C\c1cc(OC(F)(F)F)ccc1O | 0.0631 | – |
| COc1ccc2c(c1)/C(=C/c1c[nH]c3ccccc13)C(=O)N2 | 0.0316 | – |
| COc1ccc(CN2C(=O)/C(=C\c3[nH]c(C)cc3C)c3ccccc32)cc1 | 0.0316 | – |
| Cc1cc(C)c(/C=C2\C(=O)Nc3cccc(C)c32)[nH]1 | 0.0398 | – |
| Cc1[nH]c2ccccc2c1/C=C1/C(=O)Nc2ccccc21 [drawing 197] | 0.794 | – |
| O=C1Nc2ccc(O)cc2/C1=C/c1c[nH]c2ccccc12 | 0.0794 | – |
| O=C1Nc2ccc(Cl)cc2/C1=C/c1c[nH]c2ccccc12 | 0.01 | – |
| O=C1Nc2ccccc2/C1=C\c1cc(Br)co1 | 0.0316 | – |
| O=C1Nc2ccccc2/C1=C/c1cccc([N+](=O)[O-])c1 | 0.02 | – |
| O=C1Nc2ccccc2/C1=C/c1c[nH]c2cccc(OCc3ccccc3)c12 | 0.1 | – |
| N#Cc1cccc2c1NC(=O)/C2=C\c1c[nH]c2ccccc12 | 0.001 | – |
| Cc1cc(C(=O)NCCc2c[nH]c3ccccc23)[nH]c1/C=C1\C(=O)Nc2ccccc21 | 0.0398 | – |
| O=C1Nc2cc(F)ccc2/C1=C/c1c[nH]c2ccccc12 | 0.00316 | – |
| O=C1Nc2ccccc2/C1=C\c1cccc(Cl)c1 | 0.01 | – |
| COc1ccc(OC)c(/C=C2\C(=O)N(OC)c3ccccc32)c1 | 0.02 | – |
| O=C1Nc2ccccc2/C1=C\c1ccc2cc[nH]c2c1 | 0.00631 | – |
| Cc1cc(C)c(/C=C2\C(=O)Nc3ccc(O)cc32)[nH]1 | 0.794 | – |
| Cc1ccc(C)c(/C=C2/C(=O)Nc3ccccc32)c1 [drawing 112] | 0.1 | – |
| O=C1Nc2cc(Cl)ccc2/C1=C/c1c[nH]c2ccccc12 | 0.0631 | – |
| O=C1Nc2ccccc2/C1=C\c1ccc(-c2ccccc2)o1 | 0.00398 | – |
| COc1ccc(OC)c(/C=C2/C(=O)Nc3cc(S(C)(=O)=O)ccc32)c1 | 0.794 | – |

| SMILES | IC50 (IL-2) [µM] | further results |
| --- | --- | --- |
| COc1ccc(OC)c(/C=C2/C(=O)Nc3ccc(N)cc32)c1 | – | IL-2 pIC50 (IL-2): 6.5 |
| COc1ccc(O)c(/C=C2\C(=O)Nc3ccccc32)c1 | 0.2 | – |
| O=C1Nc2ccccc2/C1=C\c1cc(O)ccc1O | 0.1 | – |
| O=C(O)CCn1cc(/C=C2\C(=O)Nc3ccccc32)c2ccccc21 | 0.2 | – |
| Cc1cc(C)cc(-c2ccc(N(C)CCN(C)C)c(/C=C3\C(=O)Nc4ccccc43)c2)c1 | 0.0631 | – |
| Cc1cc(CO)[nH]c1/C=C1\C(=O)Nc2ccccc21 [drawing 144] | 0.0398 | – |
| Cc1cc(C(=O)NCCCCc2ccccc2)[nH]c1/C=C1\C(=O)Nc2ccccc21 | 0.1 | – |
| O=C(O)Cn1cc(/C=C2\C(=O)Nc3ccccc32)c2ccccc21 [drawing 229] | 0.0398 | – |
| COc1ccc(OC)c(/C=C2/C(=O)Nc3ccc(F)c(F)c32)c1 | 0.02 | – |
| O=C1Nc2ccccc2/C1=C/c1ccccc1F | 0.0631 | – |
| Cc1cc(C)c(/C=C2\C(=O)Nc3cccc(Cl)c32)[nH]1 | 0.001 | – |
| O=C1Nc2ccccc2/C1=C/c1cn(Cc2ccccc2)c2ccccc12 | 0.00398 | – |
| CCOC(=O)CCCCCNC(=O)c1cc(C)c(/C=C2\C(=O)Nc3ccccc32)[nH]1 | 0.0794 | – |
| Cn1cc(/C=C2\C(=O)Nc3ccccc32)c2ccccc21 | 0.002 | – |
| Cc1cc(C(=O)NCCO)[nH]c1/C=C1\C(=O)Nc2ccccc21 [drawing 176] | 0.0316 | – |
| COc1cccc(/C=C2/C(=O)Nc3ccccc32)c1 | 0.00631 | – |
| CC(C)(C)OC(=O)N1C(=O)/C(=C\c2c[nH]c3ccccc23)c2ccccc21 | 0.001 | – |
| COc1ccc(OC)c(/C=C2/C(=O)N(O)c3ccccc32)c1 | 0.01 | – |
| Cc1ccc(/C=C2/C(=O)Nc3ccccc32)c(C)c1 | 0.001 | – |
| COc1ccc(OC)c(/C=C2/C(=O)Nc3cc(F)ccc32)c1 | 0.01 | – |
| Cc1ccc(/C=C2\C(=O)Nc3ccccc32)cc1C | 0.0501 | – |
| Cc1cc(/C=C2/C(=O)Nc3ccccc32)oc1C | 0.00398 | – |
| Cc1cc(C(=O)NCCCC2CCN(C=O)CC2)[nH]c1/C=C1\C(=O)Nc2ccccc21 | 0.0501 | – |
| CCOC(=O)CCn1cc(/C=C2\C(=O)Nc3ccccc32)c2ccccc21 | 0.2 | – |
